Reference: patent publication US20150283120A1, “ANTIBIOTIC METHODS AND COMPOSITIONS FOR BACTERIA INFECTIONS” (THE UNIVERSITY OF CHICAGO, priority 2012, published 2015)
“Also recorded” adds a separate entry of the source.

Assays:
Format in all cases: cell-based, Staphylococcus aureus
[1] = tested on: MRSA strain USA300 Pvra-lux; details: compound 10 μM + oxacillin 2 μg/mL; for RG avg (relative growth): ratio of OD600 to oxacillin alone, four runs
Protocol: (§1) In the secondary screen each microtiter plate contained either cells in TSB alone (16 replicates), cells with oxacillin (2 μg/mL, 31 replicates), or cells with test compound and oxacillin (2 μg/mL, 49 wells). Each compound was assayed in four separate biological replicates.
(§2) All compounds classified in the primary screen as synergists that were vraSR-stimulating or -repressing (as shown in Table 8) were screened in a secondary assay for their effects on both growth and Pvra::lux induction by oxacillin. […] Each compound was tested four separate times at 10 μM in the presence of oxacillin (2 μg/mL) and luminescence was measured every 15 minutes. Relative growth (RG) and relative luminescence (RL) was calculated as the ratio between the OD600 or max LU value in the presence of compound and oxacillin over the average from pooled control values obtained from the same plate. […] Compounds that produced an average RG (ratio of the OD600 of the culture grown with test compound combined with oxacillin to that of oxacillin alone) of <0.8 were classified as oxacillin synergists or potentiators. The relative luminescence (RL) was the ratio of the LU produced in the presence of the test compound combined with oxacillin to that produced by oxacillin alone. Compounds were classified as “vraSR repressors” (mean RL of <0.8), “vraSR stimulators”, (mean RL>1.2), and “vraSR neutral” (mean RL between 0.80-1.2). […] In contrast, 34 compounds had no effect on growth in the presence of oxacillin (“un” in the OD600 category). Among the oxacillin potentiators, there were 2 vraSR stimulators, 3 vraSR neutral compounds and 10 vraSR repressors.

[2] = tested on: vraSR transcription (Pvra::lux); details: compound 10 μM + oxacillin 2 μg/mL; for RL avg (relative luminescence): ratio of LU to oxacillin alone, four runs
Protocol: as §1, §2

[3] = tested on: vraR transcription; assay: Tertiary screen: qRT-PCR of vraR in strain 923; details: for classification of lux screen result against qRT-PCR (true/false repressor or stimulator): in the presence of oxacillin; for Effect on vraSR Transcription: With oxacillin / Effect on vraSR Transcription: Compound alone: qRT-PCR of vraR; for Effect on vraSR Transcription: With oxacillin: compound 10 μM + oxacillin 2 μg/mL; for Effect on vraSR Transcription: Compound alone: compound 10 μM, no oxacillin
[4] = tested on: MRSA strain USA300-isolate 923; assay: Checkerboard MIC testing of compounds with oxacillin
[5] = tested on: VRS1; assay: microbe, parasite or virus in culture; details: Staphylococcus aureus, read-out: MIC Van
Description: (§3) As shown in the analysis of the checkerboard assays (Table 6), gossypol fully potentiated vancomycin (FIC i<0.5) in hVISA, VISA, VRS2 and VRS1. […] Clomiphene partially potentiated vancomycin in hVISA, VISA, and VRS1 and it fully potentiated in strain VRS2.

[6] = tested on: VRS2; assay: microbe, parasite or virus in culture; details: Staphylococcus aureus, read-out: MIC Van
Description: as §3

[7] = tested on: hVISA 2275; assay: microbe, parasite or virus in culture; details: Staphylococcus aureus, read-out: MIC Van
Description: as §3

[8] = tested on: VISA 2283; assay: microbe, parasite or virus in culture; details: vancomycin alone; for MIC Van: VISA 2283
Description: as §3

Molecule	OD600 category [1]	RG avg (relative growth) [1]	Effect on vraSR transcription [2]	RL avg (relative luminescence) [2]	classification of lux screen result against qRT-PCR (true/false repressor or stimulator) [3]	Effect on vraSR Transcription: With oxacillin [3]	Effect on vraSR Transcription: Compound alone [3]	also measured
CC1=CC(=O)c2ccccc2C1=O [Menadione, 2-Methylnaphthalene-1,4-dione]	inhibited (of <0.8 were classified as oxacillin synergists or potentiators)	0.69	repress (“vraSR repressors” (mean RL of <0.8))	0.47	true vraSR expression repressors	vraR inhibitors; also recorded: repress		oxacillin MIC ([4]; strain 923, Men 10.8 μM): 16 mg/L; oxacillin MIC ([4]; strain 923, Men 12.3 μM): 16 mg/L; oxacillin MIC ([4]; strain 923, Men 14.1 μM): 16 mg/L; oxacillin MIC ([4]; strain 923, Men 16.1 μM): 2 mg/L; oxacillin MIC ([4]; strain 923, Men 18.4 μM): 2 mg/L; oxacillin MIC ([4]; strain 923, Men 21 μM): 2 mg/L; oxacillin MIC ([4]; strain 923, Men 24 μM): 2 mg/L; FICi (FIC index) with oxacillin ([4]; strain 923, in at least one combination (well)): > 0.5; MIC of oxacillin ([4]; strain 923, menadione at 16 μM): 2 mg/L
CCn1cc(C(=O)O)c(=O)c2cc(F)c(N3CCNCC3)cc21 [Norfloxacin, 1-ethyl-6-fluoro-4-oxo-7-piperazin-1-yl-1H-quinoline-3-carboxylic acid]	inhibited (of <0.8 were classified as oxacillin synergists or potentiators)	0.40	repress (“vraSR repressors” (mean RL of <0.8))	0.33	true vraSR expression repressors	repress		change of the MIC of oxacillin with compound concentration ([4]; strain 923, checkerboard): dose dependent decrease
C[C@H]1[C@H](C)CC[C@]2(C(=O)O)CC[C@]3(C)C(=CC[C@@H]4[C@@]5(C)CC[C@H](O)C(C)(C)[C@@H]5CC[C@]43C)[C@H]12 [Ursolic acid]	inhibited (of <0.8 were classified as oxacillin synergists or potentiators)	0.77	repress (“vraSR repressors” (mean RL of <0.8))	0.71			stimulate	
CN[C@H](CC(C)C)C(=O)N[C@H]1C(=O)N[C@@H](CC(N)=O)C(=O)N[C@H]2C(=O)N[C@H]3C(=O)N[C@H](C(=O)N[C@H](C(=O)O)c4cc(O)cc(O)c4-c4cc3ccc4O)[C@H](O)c3ccc(c(Cl)c3)Oc3cc2cc(c3O[C@@H]2O[C@H](CO)[C@@H](O)[C@H](O)[C@H]2O[C@H]2C[C@](C)(N)[C@H](O)[C@H](C)O2)Oc2ccc(cc2Cl)[C@H]1O [vancomycin]								MIC [5]: 1020 µg/mL; MIC [6]: 16 µg/mL; MIC [7]: 4 µg/mL; MIC ([8]; Staphylococcus aureus, VISA, read-out: MIC Van, VISA 2283): 16 µg/mL; MIC Van [8]: 8 mg/L; MIC Van ([8]; listed as Van): 8 mg/L
Spiramycin	inhibited (of <0.8 were classified as oxacillin synergists or potentiators)	0.43	repress (“vraSR repressors” (mean RL of <0.8))	0.31		super-stimulate	None	
